What was measured:
Ovis aries = species: Ovis aries; assay: Inhibition of sheep brain tubulin polymerization at 100 uM using DAPI by fluorimetry
MDA-MB-468 = assay: Growth inhibition of human MDA-MB-468 cells at 10 uM after 48 hrs by sulforhodamine B assay; format: functional; conditions: MDA-MB-468, 48 h, read-out: GI
T47D = assay: Growth inhibition of human T47D cells at 10 uM after 48 hrs by sulforhodamine B assay; format: functional; conditions: read-out: GI
MDA-MB-231 = assay: Growth inhibition of human MDA-MB-231 cells at 10 uM after 48 hrs by sulforhodamine B assay; format: functional; conditions: MDA-MB-231, 48 h, read-out: GI
MCF7 = assay: Growth inhibition of human MCF7 cells at 10 uM after 48 hrs by sulforhodamine B assay; format: functional; conditions: MCF7, 48 h, read-out: GI
SNB-75 = assay: Growth inhibition of human SNB75 cells at 10 uM after 48 hrs by sulforhodamine B assay; format: functional; conditions: SNB-75, 48 h, read-out: GI
SF-295 = assay: Growth inhibition of human SF295 cells at 10 uM after 48 hrs by sulforhodamine B assay; format: functional; conditions: SF-295, 48 h, read-out: GI
PC-3 = assay: Growth inhibition of human PC3 cells at 10 uM after 48 hrs by sulforhodamine B assay; format: functional; conditions: PC-3, 48 h, read-out: GI
786-0 = assay: Growth inhibition of human 786-0 cells at 10 uM after 48 hrs by sulforhodamine B assay; format: functional; conditions: 786-0, 48 h, read-out: GI
UO-31 = assay: Growth inhibition of human UO31 cells at 10 uM after 48 hrs by sulforhodamine B assay; format: functional; conditions: UO-31, 48 h, read-out: GI
CAKI-1 = assay: Growth inhibition of human CAKI-1 cells at 10 uM after 48 hrs by sulforhodamine B assay; format: functional; conditions: CAKI-1, 48 h, read-out: GI
RXF 393 = assay: Growth inhibition of human RXF393 cells at 10 uM after 48 hrs by sulforhodamine B assay; format: functional; conditions: RXF 393, 48 h, read-out: GI
A498 = assay: Growth inhibition of human A498 cells at 10 uM after 48 hrs by sulforhodamine B assay; format: functional; conditions: A498, 48 h, read-out: GI
[1] = Growth inhibition of human NCI-ADR-RES cells at 10 uM after 48 hrs by sulforhodamine B assay; format: functional; conditions: read-out: GI
OVCAR-4 = assay: Growth inhibition of human OVCAR4 cells at 10 uM after 48 hrs by sulforhodamine B assay; format: functional; conditions: OVCAR-4, 48 h, read-out: GI
SK-MEL-5 = assay: Growth inhibition of human SK-MEL-5 cells at 10 uM after 48 hrs by sulforhodamine B assay; format: functional; conditions: SK-MEL-5, 48 h, read-out: GI
Malme-3M = assay: Growth inhibition of human MALME-3M cells at 10 uM after 48 hrs by sulforhodamine B assay; format: functional; conditions: read-out: GI
LOX IMVI = assay: Growth inhibition of human LOXIMVI cells at 10 uM after 48 hrs by sulforhodamine B assay; format: functional; conditions: read-out: GI
UACC-62 = assay: Growth inhibition of human UACC62 cells at 10 uM after 48 hrs by sulforhodamine B assay; format: functional; conditions: UACC-62, 48 h, read-out: GI
KM12 = assay: Growth inhibition of human KM12 cells at 10 uM after 48 hrs by sulforhodamine B assay; format: functional; conditions: KM12, 48 h, read-out: GI
MDA-MB-435 = assay: Growth inhibition of human MDA-MB-435 cells at 10 uM after 48 hrs by sulforhodamine B assay; format: functional; conditions: MDA-MB-435, 48 h, read-out: GI
HCT-15 = assay: Growth inhibition of human HCT15 cells at 10 uM after 48 hrs by sulforhodamine B assay; format: functional; conditions: HCT-15, 48 h, read-out: GI
HCT-116 = assay: Growth inhibition of human HCT116 cells at 10 uM after 48 hrs by sulforhodamine B assay; format: functional; conditions: HCT-116, 48 h, read-out: GI
COLO 205 = assay: Growth inhibition of human COLO205 cells at 10 uM after 48 hrs by sulforhodamine B assay; format: functional; conditions: COLO 205, 48 h, read-out: GI
NCI-H522 = assay: Growth inhibition of human NCI-H522 cells at 10 uM after 48 hrs by sulforhodamine B assay; format: functional; conditions: NCI-H522, 48 h, read-out: GI
HOP-92 = assay: Growth inhibition of human HOP92 cells at 10 uM after 48 hrs by sulforhodamine B assay; format: functional; conditions: HOP-92, 48 h, read-out: GI
HOP-62 = assay: Growth inhibition of human HOP62 cells at 10 uM after 48 hrs by sulforhodamine B assay; format: functional; conditions: HOP-62, 48 h, read-out: GI
RPMI-8226 = assay: Growth inhibition of human RPMI8226 cells at 10 uM after 48 hrs by sulforhodamine B assay; format: functional; conditions: RPMI-8226, 48 h, read-out: GI
MOLT-4 = assay: Growth inhibition of human MOLT4 cells at 10 uM after 48 hrs by sulforhodamine B assay; format: functional; conditions: MOLT-4, 48 h, read-out: GI
HL-60(TB) = assay: Growth inhibition of human HL-60(TB) cells at 10 uM after 48 hrs by sulforhodamine B assay; format: functional; conditions: HL-60, 48 h, read-out: GI
CCRF-CEM = assay: Growth inhibition of human CCRF-CEM cells at 10 uM after 48 hrs by sulforhodamine B assay; format: functional; conditions: read-out: GI

Question: For `CCOC(=O)c1cc(C(=O)N2c3ccccc3Sc3ccccc32)n2ccc(N(C)C)cc12`, which inhibition (Ovis aries) is on record?
Answer: 42%

Question: What about the inhibition of growth at 10 µM (MDA-MB-468) of the same compound?
Answer: 19.7%

Question: What about the inhibition of growth at 10 µM (T47D) of the same compound?
Answer: 14.7%

Question: And the inhibition of growth at 10 µM (MDA-MB-231)?
Answer: 7.2%

Question: What about the inhibition of growth at 10 µM (MCF7) of the same compound?
Answer: 18.5%

Question: What about the inhibition of growth at 10 µM (SNB-75) of the same compound?
Answer: 30.1%

Question: And the inhibition of growth at 10 µM (SF-295)?
Answer: 22.8%

Question: What about the inhibition of growth at 10 µM (PC-3) of the same compound?
Answer: 50.7%

Question: And the inhibition of growth at 10 µM (786-0)?
Answer: 0%

Question: And the inhibition of growth at 10 µM (UO-31)?
Answer: 0%

Question: And the inhibition of growth at 10 µM (CAKI-1)?
Answer: 23.2%

Question: What about the inhibition of growth at 10 µM (RXF 393) of the same compound?
Answer: 33.3%

Question: And the inhibition of growth at 10 µM (A498)?
Answer: 4.4%

Question: What about the inhibition of growth at 10 µM [1] of the same compound?
Answer: 29.4%

Question: What about the inhibition of growth at 10 µM (OVCAR-4) of the same compound?
Answer: 9.5%

Question: What about the inhibition of growth at 10 µM (SK-MEL-5) of the same compound?
Answer: 23.2%

Question: What about the inhibition of growth at 10 µM (Malme-3M) of the same compound?
Answer: 22.7%

Question: What about the inhibition of growth at 10 µM (LOX IMVI) of the same compound?
Answer: 20.2%

Question: And the inhibition of growth at 10 µM (UACC-62)?
Answer: 27.7%

Question: And the inhibition of growth at 10 µM (KM12)?
Answer: 26.4%

Question: And the inhibition of growth at 10 µM (MDA-MB-435)?
Answer: 74.5%

Question: What about the inhibition of growth at 10 µM (HCT-15) of the same compound?
Answer: 18.3%

Question: And the inhibition of growth at 10 µM (HCT-116)?
Answer: 12.1%

Question: And the inhibition of growth at 10 µM (COLO 205)?
Answer: 0%

Question: What about the inhibition of growth at 10 µM (NCI-H522) of the same compound?
Answer: 26.2%

Question: And the inhibition of growth at 10 µM (HOP-92)?
Answer: 18.4%

Question: And the inhibition of growth at 10 µM (HOP-62)?
Answer: 29.5%

Question: What about the inhibition of growth at 10 µM (RPMI-8226) of the same compound?
Answer: 0%

Question: What about the inhibition of growth at 10 µM (MOLT-4) of the same compound?
Answer: 15.3%

Question: And the inhibition of growth at 10 µM (HL-60(TB))?
Answer: 6.7%

Question: And the inhibition of growth at 10 µM (CCRF-CEM)?
Answer: 27.1%

Reference: ChEMBL document CHEMBL2331144, “Synthesis and anticancer activity of analogues of phenstatin, with a phenothiazine A-ring, as a new class of microtubule-targeting agents” (Bioorg Med Chem Lett, 2013)
